Test results: patent US20090215783A1, “COMPOSITION FOR INDUCTION OR INHIBITION OF STEM CELL DIFFERENTIATION” (CHOONGWAE PHARMA CORPORATION, priority 2006, published 2009)

Experiments:
[1] = test system: Mouse embryonic stem (ES) cells, TC1; test: Cardiomyogenesis modulating activity assay (alpha-MHC promoter EGFP, embryoid bodies, FACS/fluorescence microscopy); format: cell-based; details: embryoid bodies treated for 5 days, FACS
Experimental: a. Cell culture: Mouse embryonic stem (ES) cells, TC1 derived from 129/S6 strain were cultured on irradiated feeder layer in the culture medium which is high-glucose DMEM (Gibco) BRL, Germany) supplemented with 15% FBS (Hyclone), 0.1 mM beta-mercaptoethanol, […] sodium pyruvate, 1 mM L-glutamine and 1× non-essential amino acids.
b. Establishment of alpha-MHC stably transformed ES cell line: A construct (FIG. 8) containing 1.8 kb promoter sequence of the mouse alpha-MHC gene between EcoRI and SalI sites of pEGFP-1 (Clontech Laboratories, Inc, CA, USA) was linearized at XhoI site, and was introduced into mouse ES cells, TC1, using the Gene Pulser II (BioRad, MA). A selection medium containing G418 was applied for two weeks from 24 hours after electroporation. The selected ES cell clones were harvested and expanded on the feeder cell layer. The green fluorescence-expressing clones when differentiated into cardiomyocytes were used in this experiment.
c. Cardiomyogenesis modulating activity assay: Embryoid body (EB) was formed by hanging drop culture using about a number of 600 (six hundred) ES cells for two days and it was further expanded by culturing in suspension condition on a Petri-dish for another two days. Then each EB was plated on a well of 96 well culture plates. Test compounds were dissolved in DMSO and diluted with culture media (final 0.05% DMSO) and EB was treated with test compound for 5 days. Culture medium was changed every three days after plating. Expression level of EGFP was measured with FACS (Beckman). For FACS analysis, differentiating cells were dissociated with trypsin. For the determination of the extent of differentiation, EB was observed and photographed with an inverted fluorescence microscope (Zeiss, Germany). Number of beating EBs was counted under the microscope and recorded once daily.

[2] = test system: human bone marrow derived-mesenchymal stem cells (hBMMSC); test: Osteogenesis modulating activity assay by test compound alone (ALP activity); format: cell-based; details: Homo sapiens, 168 h; hBMMSC, 20 μM test compound alone, six to seven days; read-out: Osteogenesis: fold change of ALP activity compared with DMSO control
Experimental: Cell culture: Human bone marrow derived-mesenchymal stem cells (hBMMSC) were isolated from normal subjects.
Osteogenesis modulating activity assay by test compound alone: hBMMSC were cultivated in the culture medium and cells were seeded into 96-well culture plates and test compounds were dissolved in DMSO and diluted with culture media (final 0.01% DMSO) and added into the media (final concentration of test compound was 20 μM) and cultured in the CO2 incubator (37° C., 5% CO2). Culture medium was changed every two days with fresh one and compound was treated again whenever medium was changed. Six to seven days after incubation, Alkaline phosphatase activity of cell lysates was measured by colorimetry. For the determination of mineralization within the cells, Von Kossa staining or Alizarin Red S assay was performed 10-14 days after incubation.

SMILES | Cardiomyogenesis: fold change of EGFP expression level compared with DMSO control [1] | fold induction at 20 µM [2]
CN1CC(=O)N2C(Cc3ccc(Oc4ccccc4)cc3)C(=O)N(Cc3cccc4ccccc34)CC2N1C(=O)NCc1ccccc1 (centres unmarked) [#1] | 1.21 fold | 0.36
CC(C)C[C@H]1C(=O)N(CC(=O)N(Cc2ccccc2)c2ccccc2)CC2N1C(=O)CN(C)N2C(=O)NCc1ccccc1 (some centres unmarked) [#2] | 1.11 fold | 1.09
CC(C)C[C@H]1C(=O)N(CCOc2ccccc2N)CC2N1C(=O)CN(C)N2C(=O)NCc1ccccc1 (some centres unmarked) [#3] | 1.25 fold | 1.29
CC(C)C[C@H]1C(=O)N(CC(=O)N(c2ccccc2)c2cccc(Cl)c2)C[C@H]2N1C(=O)CN(C)N2C(=O)NCc1ccccc1 [#4] | 0.40 fold | 0.59
CC(C)C[C@H]1C(=O)N(CC(=O)N2c3ccccc3Oc3ccccc32)C[C@H]2N1C(=O)CN(C)N2C(=O)NCc1ccccc1 [#5] | 0.36 fold | 0.29
CN1CC(=O)N2C(CN(Cc3ccc(Cl)c(Cl)c3)C(=O)[C@H]2Cc2ccc(O)cc2)N1C(=O)NCc1cccnc1 (some centres unmarked) [#6] | 0.47 fold | 0.51
CN1CC(=O)N2[C@@H](Cc3ccc(O)c(C(C)(C)C)c3)C(=O)N(Cc3cccc4cccnc34)C[C@@H]2N1C(=O)NCc1ccccc1 [#7] | 1.22 fold | 0.51
CN1CC(=O)N2[C@@H](CN(Cc3cccc(Cl)c3)C(=O)[C@H]2c2ccc(O)cc2)N1C(=O)NCc1ccccc1 [#8] | 0.65 fold | 0.55
CN1CC(=O)N2C(CN(Cc3ccc(F)cc3)C(=O)[C@@H]2Cc2ccc(O)cc2)N1C(=O)NCc1ccccc1 (some centres unmarked) [#9] | 1.59 fold | 0.24
CN1CC(=O)N2[C@@H](Cc3ccc(O)cc3)C(=O)N(Cc3cccc4[nH]ncc34)C[C@@H]2N1C(=O)NCc1ccccc1 [#11] | 0.07 fold | 0.3
C#CCNC(=O)N1[C@H]2CN(Cc3cccc4ccccc34)C(=O)[C@H](Cc3ccc(O)cc3)N2C(=O)CN1C [#12] | 1.27 fold | 0.76
C=CCN1CC(=O)N2C(Cc3ccc(O)cc3)C(=O)N(Cc3ccc(F)cc3F)C[C@H]2N1C(=O)NCc1ccccc1 (some centres unmarked) [#13] | 1.02 fold | 0.47
C=CCN1CC(=O)N2[C@@H](Cc3ccc(O)cc3)C(=O)N(Cc3ccc(F)c4scnc34)C[C@@H]2N1C(=O)NCc1ccccc1F [#14] |  | 0.29
CC(C)CN1C[C@H]2N(C(=O)CN(C)N2C(=O)NCc2ccccc2)[C@@H](Cc2ccc(O)cc2)C1=O [#15] | 0.41 fold | 1.12
CC(C)CN1C[C@H]2N(C(=O)CN(C)N2C(=O)NCc2ccccc2)[C@@H](CC(=O)O)C1=O [#16] | 1.42 fold | 0.97
CC(C)CN1C[C@H]2N(C(=O)CN(C)N2C(=O)NCc2ccccc2)[C@@H](CCC(=O)O)C1=O [#17] | 2.52 fold | 1.29
CC(C)CN1C[C@H]2N(C(=O)CN(C)N2C(=O)NCc2ccccc2)[C@@H](c2ccccc2)C1=O [#18] | 2.01 fold | 0.93
COc1ccc(CN2CC3N(C(=O)CN(C)N3C(=O)NCc3ccccc3)C(Cc3ccc(O)cc3)C2=O)cc1 (centres unmarked) [#19] | 3.03 fold | 0.7
COc1ccc(CN2C[C@H]3N(C(=O)CN(C)N3C(=O)NCc3ccccc3)[C@@H](CC(C)C)C2=O)cc1 [#20] | 2.17 fold | 1.06

SMILES | Cardiomyogenesis: fold change of EGFP expression level compared with DMSO control [1] | fold induction at 20 µM [2]
COc1ccc(CN2C[C@H]3N(C(=O)CN(C)N3C(=O)NCc3ccccc3)[C@@H](C(C)C)C2=O)cc1 [#21] | 0.62 fold | 1.21
COc1ccc(CN2C[C@H]3N(C(=O)CN(C)N3C(=O)NCc3ccccc3)[C@@H](Cc3ccccc3)C2=O)cc1 [#22] | 1.16 fold | 0.7
CCC(C)[C@H]1C(=O)N(Cc2ccc(OC)cc2)C[C@H]2N1C(=O)CN(C)N2C(=O)NCc1ccccc1 (some centres unmarked) [#23] | 1.69 fold | 0.86
CCC[C@H]1C(=O)N(Cc2ccc(OC)cc2)C[C@H]2N1C(=O)CN(C)N2C(=O)NCc1ccccc1 [#24] | 1.57 fold | 0.85
CCCCNC(=O)N1[C@H]2CN([C@@H](C)c3ccccc3)C(=O)[C@H](Cc3ccc(O)cc3)N2C(=O)CN1Cc1ccc(C)cc1 [#45] |  | 1.08
CCCCNC(=O)N1[C@H]2CN([C@@H](C)c3ccccc3)C(=O)[C@H](Cc3ccccc3)N2C(=O)CN1Cc1ccc(C)cc1 [#47] | 2.32 fold | 
CCCCNC(=O)N1[C@H]2CN([C@@H](C)c3ccccc3)C(=O)[C@H](CCC)N2C(=O)CN1Cc1ccc(C)cc1 [#48] | 1.02 fold | 
CCCCNC(=O)N1[C@H]2CN([C@@H](C)c3ccccc3)C(=O)[C@H](CC(=O)O)N2C(=O)CN1Cc1ccc(C)cc1 [#49] | 1.14 fold | 
CCCCNC(=O)N1[C@H]2CN([C@@H](C)c3ccccc3)C(=O)[C@H](CCC(=O)O)N2C(=O)CN1Cc1ccc(C)cc1 [#50] | 0.26 fold | 
C#CCN1CC(=O)N2C(Cc3ccc(Cl)cc3)C(=O)N(CCCCCCC)C[C@@H]2N1C(=O)NCc1ccccc1 (some centres unmarked) [#52] | 1.99 fold | 
O=C1[C@H](Cc2ccc(O)cc2)N2C(=O)CN(Cc3ccccc3)N(C(=O)NCc3ccccc3)C2CN1Cc1cccc(F)c1 (some centres unmarked) [#53] | 1.95 fold | 
CC(C)C[C@H]1C(=O)N(Cc2cccc(F)c2)C[C@H]2N1C(=O)CN(Cc1ccccc1)N2C(=O)NCc1ccccc1 [#54] | 1.42 fold | 
O=C1[C@H](Cc2ccccc2)N2C(=O)CN(Cc3ccccc3)N(C(=O)NCc3ccccc3)[C@H]2CN1Cc1cccc(F)c1 [#56] | 1.08 fold | 
CCC[C@H]1C(=O)N(Cc2cccc(F)c2)C[C@H]2N1C(=O)CN(Cc1ccccc1)N2C(=O)NCc1ccccc1 [#58] | 1.91 fold | 
O=C(O)C[C@H]1C(=O)N(Cc2cccc(F)c2)C[C@H]2N1C(=O)CN(Cc1ccccc1)N2C(=O)NCc1ccccc1 [#59] | 0.48 fold | 
O=C1[C@H](c2ccccc2)N2C(=O)CN(Cc3ccccc3)N(C(=O)NCc3ccccc3)[C@H]2CN1Cc1cccc(F)c1 [#60] | 1.23 fold | 
O=C1[C@@H](Cc2ccccc2)N2C(=O)CN(Cc3ccc(F)cc3)N(C(=O)NCc3ccccc3)[C@@H]2CN1Cc1cccc(C(F)(F)F)c1 [#61] | 1.06 fold | 
O=C1[C@H](COCc2ccccc2)N2C(=O)CN(Cc3ccc(F)cc3)N(C(=O)NCc3ccccc3)C2CN1Cc1cccc(C(F)(F)F)c1 (some centres unmarked) [#62] | 0.89 fold | 
